One assay deals with T1, DGKα (Homo sapiens, UniProt P23743).
T1 construct: His; purchased Signal Chem D21-10BH
Put plainly: In vitro DGKα inhibition assay (ADP-Glo). Particulars: His-tagged human recombinant DGKα 0.1 nM, 50 μM ATP, 20 μM DLG, 90 minute incubation. The class given is biochemical. On the procedure: (§1) The DGKα and DGKζ biochemical reactions were performed using His-tagged human recombinant enzymes (Signal Chem, DGKα, #D21-10BH; DGKζ, #D30-10H)) and DLG (Dilauroyl-sn-glycerol) lipid substrate (Signal Chem, #D430-59). ADP-Glo assay was performed using ADP-Glo™ kinase Assay kit (Promega, #V9104). The reactions were carried out in assay buffer containing 40 mM Tris, pH 7.5, 0.1% CHAPS, 0.1% Prionex, 40 mM NaCl, 5 mM MgCl2, 1 mM CaCl2, and 1 mM DTT. DGKα reactions contained 0.1 nM DGKα, 50 μM ATP, and 20 μM DLG. And DGKζ reactions contained 0.4 nM DGKζ, 30 μM ATP, and 20 μM DLG.
(§2) Compounds were added with top concentration of 2 mM with 11 point, 3-fold dilution series. Enzyme solution (contains 2×DGK enzyme concentration in 1× assay buffer) was added to the plate in 2 μL/well volume, followed by 2 μL/well of substrate solution (contains 2× concentration of ATP and DLG substrate in 1× assay buffer). Plates were then centrifuged for 1 min at 1200 RPM and sealed or lidded. For 4 μL reaction volume, test compounds were therefore diluted 100× to final top concentration of 20 μM. After 90 minute incubation, reactions were quenched by addition of 2 μL/well Promega ADP-Glo Reagent, followed by centrifugation and lidding. After 60 min incubation, 2 μL/well Promega Kinase Detection Reagent was added, plates centrifuged, and incubated for 30 min. Plates were then read using Luminescence method on BMG PHERAstar FSX plate reader. Percent inhibition was calculated and IC50s were determined using 4-parameter fit in Genedata Screener. Labcyte Echo acoustic dispenser was used for compound addition, and Formulatrix Tempest liquid handler was used for all reagent dispenses.

In a further assay the target is T2, DGKζ (Homo sapiens, UniProt Q13574).
T2 construct: His; purchased Signal Chem D30-10H
Kind of assay: In vitro DGKζ inhibition assay (ADP-Glo). Format: biochemical. Particulars: His-tagged human recombinant DGKζ 0.4 nM, 30 μM ATP, 20 μM DLG, 90 minute incubation. On the procedure:
as §1, §2

pIC50: −log10 of the molar value.

T1 sequence (P23743 whole entry): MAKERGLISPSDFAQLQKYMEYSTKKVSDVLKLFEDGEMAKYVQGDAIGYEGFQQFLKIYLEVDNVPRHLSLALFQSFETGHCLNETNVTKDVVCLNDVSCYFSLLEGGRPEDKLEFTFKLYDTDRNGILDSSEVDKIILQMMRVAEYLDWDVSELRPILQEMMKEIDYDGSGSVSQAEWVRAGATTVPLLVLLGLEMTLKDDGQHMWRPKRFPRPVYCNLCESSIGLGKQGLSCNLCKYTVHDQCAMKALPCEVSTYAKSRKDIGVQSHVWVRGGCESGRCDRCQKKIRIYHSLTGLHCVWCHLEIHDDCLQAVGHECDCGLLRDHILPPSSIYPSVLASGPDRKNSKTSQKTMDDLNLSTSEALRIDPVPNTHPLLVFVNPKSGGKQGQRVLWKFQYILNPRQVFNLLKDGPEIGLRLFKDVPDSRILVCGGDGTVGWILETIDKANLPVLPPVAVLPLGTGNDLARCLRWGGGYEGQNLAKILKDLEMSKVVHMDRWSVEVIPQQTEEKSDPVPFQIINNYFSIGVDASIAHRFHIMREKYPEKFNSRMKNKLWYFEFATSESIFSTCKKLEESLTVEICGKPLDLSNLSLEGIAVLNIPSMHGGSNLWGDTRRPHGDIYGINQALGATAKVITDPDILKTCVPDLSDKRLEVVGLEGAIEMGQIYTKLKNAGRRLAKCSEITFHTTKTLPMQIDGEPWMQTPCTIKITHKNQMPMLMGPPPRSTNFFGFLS
T2 sequence (Q13574 whole entry): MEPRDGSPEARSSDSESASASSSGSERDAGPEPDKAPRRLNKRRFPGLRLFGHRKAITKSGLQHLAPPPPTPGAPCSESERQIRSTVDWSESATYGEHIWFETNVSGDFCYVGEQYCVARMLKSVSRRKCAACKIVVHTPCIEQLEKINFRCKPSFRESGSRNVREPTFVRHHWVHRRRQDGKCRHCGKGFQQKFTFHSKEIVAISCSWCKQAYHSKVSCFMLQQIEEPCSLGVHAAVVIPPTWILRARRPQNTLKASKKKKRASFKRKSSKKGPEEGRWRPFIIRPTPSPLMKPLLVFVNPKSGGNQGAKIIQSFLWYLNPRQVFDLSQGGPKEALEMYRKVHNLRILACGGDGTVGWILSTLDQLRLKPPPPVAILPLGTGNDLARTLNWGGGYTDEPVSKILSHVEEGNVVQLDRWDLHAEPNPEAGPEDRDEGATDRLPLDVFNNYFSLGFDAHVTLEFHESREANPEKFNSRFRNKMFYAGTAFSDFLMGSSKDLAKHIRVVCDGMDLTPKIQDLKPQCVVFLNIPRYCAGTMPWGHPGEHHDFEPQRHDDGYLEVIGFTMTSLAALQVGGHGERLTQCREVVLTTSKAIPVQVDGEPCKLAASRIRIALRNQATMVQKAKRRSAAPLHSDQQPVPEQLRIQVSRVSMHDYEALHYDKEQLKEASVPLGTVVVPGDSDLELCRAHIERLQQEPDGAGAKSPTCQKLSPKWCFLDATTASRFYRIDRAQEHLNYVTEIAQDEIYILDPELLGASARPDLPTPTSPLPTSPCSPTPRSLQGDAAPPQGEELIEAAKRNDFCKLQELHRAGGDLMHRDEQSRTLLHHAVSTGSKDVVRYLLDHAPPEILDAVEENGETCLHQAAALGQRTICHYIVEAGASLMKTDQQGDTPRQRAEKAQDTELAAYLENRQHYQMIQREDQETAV

As for `C[C@@H]1CN(c2nc3nncn3c3c2ncn3C[C@@H]2CCCO2)[C@@H](C)CN1C(c1ccc(C(F)(F)F)cc1)C1CC(F)(F)C1` (single isomer, unassigned) [Example 1], the pIC50 at DGKα and on DGKζ was above 7.70 in each case.

As to `C[C@@H]1CN(c2nc3nncn3c3c2ncn3C[C@@H]2CCCO2)[C@@H](C)CN1C(c1ccc(Cl)cc1)[C@@H]1CC1(F)F` (single isomer, unassigned) [Example 6], the negative logarithm of the IC50 (pIC50) at DGKα and on DGKζ was above 7.70 each time.

As for `C[C@@H]1CN(c2nc3nncn3c3c2ncn3C[C@@H]2CCCO2)[C@@H](C)CN1C(c1ccc(Cl)cc1)[C@H]1CC1(F)F` (single isomer, unassigned) [Example 7], the pIC50 on DGKα and at DGKζ was above 7.70 in each case.

With `Cc1nc2c(N3C[C@@H](C)N(C(c4ccc(Cl)cc4)[C@@H]4CC4(F)F)C[C@@H]3C)nc3nncn3c2n1C[C@@H]1CCCO1` (single isomer, unassigned) [Example 8], the negative logarithm of the IC50 (pIC50) on DGKα and on DGKζ was above 7.70 each time.

For the compound `CC(C)CC(c1ccc(Cl)cc1)N1C[C@H](C)N(c2nc3nncn3c3c2ncn3C[C@@H]2CCCO2)C[C@H]1C` (single isomer, unassigned) [Example 9], the negative logarithm of the IC50 (pIC50) at DGKα and on DGKζ was above 7.70 throughout.

In the case of `C[C@@H]1CN(c2nc3nncn3c3c2ncn3C[C@@H]2CCCO2)[C@@H](C)CN1C(C[C@@H](C)C(F)(F)F)c1ccc(Cl)cc1` (single isomer, unassigned) [Example 11], the negative-log IC50 (pIC50) on DGKα and at DGKζ was above 7.70 in each case.

With `CC(CC(c1ccc(Cl)cc1)N1C[C@H](C)N(c2nc3nncn3c3c2ncn3C[C@@H]2CCCO2)C[C@H]1C)C(F)(F)F` (single isomer, unassigned) [Example 12], the negative-log IC50 (pIC50) at DGKα and at DGKζ was above 7.70 each time.

For `C[C@@H]1CN(c2nc3nncn3c3c2ncn3C[C@@H]2CCCO2)[C@@H](C)CN1C(c1ccc(C(F)(F)F)cc1)[C@@H]1CC1(F)F` (single isomer, unassigned) [Example 13], the negative-log IC50 (pIC50) on DGKα and at DGKζ was above 7.70 throughout.

As for `CC(C)CC(c1ccc(C(F)(F)F)cc1)N1C[C@H](C)N(c2nc3nncn3c3c2ncn3C[C@@H]2CCCO2)C[C@H]1C` (single isomer, unassigned) [Example 14], the negative-log IC50 (pIC50) at DGKα and on DGKζ was above 7.70 each time.

For the compound `CC(C)CC(c1ccc(Cl)c(F)c1)N1C[C@H](C)N(c2nc3nncn3c3c2ncn3C[C@@H]2CCCO2)C[C@H]1C` (single isomer, unassigned) [Example 15], the pIC50 at DGKα and at DGKζ was above 7.70 in each case.

Turning to `C[C@@H]1CN(c2nc3nncn3c3c2ncn3C[C@@H]2CCCO2)[C@@H](C)CN1C(C[C@@H](C)C(F)(F)F)c1ccc(Cl)c(F)c1` (single isomer, unassigned) [Example 16], the pIC50 on DGKα and on DGKζ was above 7.70 each time.

For the compound `CC(CC(c1ccc(Cl)c(F)c1)N1C[C@H](C)N(c2nc3nncn3c3c2ncn3C[C@@H]2CCCO2)C[C@H]1C)C(F)(F)F` (single isomer, unassigned) [Example 17], the negative-log IC50 (pIC50) on DGKα and on DGKζ was above 7.70 in each case.

In the case of `Cc1nc2c(N3C[C@@H](C)N(C(CC(C)C)c4ccc(Cl)c(F)c4)C[C@@H]3C)nc3nncn3c2n1C[C@@H]1CCCO1` (single isomer, unassigned) [Example 18], the pIC50 on DGKα and at DGKζ was above 7.70 in each case.

For `C[C@@H]1CN(c2nc3nncn3c3c2ncn3C[C@@H]2CCCO2)[C@@H](C)CN1[C@@H](c1ccc(Cl)cc1)c1ccc(Cl)cn1` (single isomer, unassigned) [Example 21], the negative-log IC50 (pIC50) on DGKα and on DGKζ was above 7.70 each time.

As to `C[C@@H]1CN(c2nc3nncn3c3c2ncn3C[C@@H]2CCCO2)[C@@H](C)CN1[C@H](c1ccc(Cl)cc1)c1ccc(Cl)cn1` (single isomer, unassigned) [Example 22], the pIC50 on DGKα and on DGKζ was above 7.70 in each case.

The values above are taken from US20250179083A1, “TRICYCLIC TRIAZOLO COMPOUNDS AS DGK INHIBITORS” (Incyte Corporation, priority 2023, published 2025).
